# Experimental data published in PubChem BioAssay AID248 (DTP/NCI, 2004).
# “And” between values parts separate entries of the source, which are not always exact repeats. Equal values may be shown once. Toxic doses and inconclusive results are not listed.
# Test system: L1210 leukemia ip in BDF1 mice, survival T/C
# Assay: NCI In Vivo Anticancer Drug Screen. Data for tumor model L1210 Leukemia (intraperitoneal) in B6D2F1 (BDF1) mice
# Details: endpoint: mean survival time, higher = longer survival
# Summary of the method: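 Antitumor effect is assessed in tumor-bearing animals. Survival in the compound arm is compared with a vehicle-dosed control arm and expressed as their quotient.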
# [1] = dose: 100.0 mg/kg/injection, schedule: Q04DX003 (ip), vehicle: Klucel (hydroxypropylcellulose) (HPC)
# [2] = dose: 50.0 mg/kg/injection, schedule: Q01DX009 (ip), vehicle: saline with Tween-80
# [3] = dose: 100.0 mg/kg/injection, schedule: Q01DX009 (ip), vehicle: saline with Tween-80
# [4] = dose: 100.0 mg/kg/injection, schedule: Q04DX003 (ip), vehicle: saline
# [5] = dose: 200.0 mg/kg/injection, schedule: Q04DX003 (ip), vehicle: saline
# [6] = dose: 400.0 mg/kg/injection, schedule: Q04DX003 (ip), vehicle: saline
# [7] = dose: 100.0 mg/kg/injection, schedule: Q01DX001 (ip), vehicle: carboxymethylcellulose (CMC)
# [8] = dose: 200.0 mg/kg/injection, schedule: Q01DX001 (ip), vehicle: carboxymethylcellulose (CMC)
# [9] = dose: 400.0 mg/kg/injection, schedule: Q01DX001 (ip), vehicle: carboxymethylcellulose (CMC)
compound,measurement,setting,value
CNC(=S)N/N=C(/C)CCC/C(C)=N/NC(=S)NC,T/C,"dose: 1.56 mg/kg/injection, schedule: Q03HX024 (ip), vehicle: Klucel (hydroxypropylcellulose) (HPC)",95 % of control
same,T/C,"dose: 3.12 mg/kg/injection, schedule: Q01DX009 (ip), vehicle: Klucel (hydroxypropylcellulose) (HPC)",96 % of control
same,T/C,"dose: 3.12 mg/kg/injection, schedule: Q03HX024 (ip), vehicle: Klucel (hydroxypropylcellulose) (HPC)",102 % of control
same,T/C,"dose: 6.25 mg/kg/injection, schedule: Q01DX009 (ip), vehicle: Klucel (hydroxypropylcellulose) (HPC)",96 % of control
same,T/C,"dose: 6.25 mg/kg/injection, schedule: Q03HX024 (ip), vehicle: Klucel (hydroxypropylcellulose) (HPC)",97 % of control
same,T/C,"dose: 6.25 mg/kg/injection, schedule: Q04DX003 (ip), vehicle: Klucel (hydroxypropylcellulose) (HPC)",108 % of control
same,T/C,"dose: 12.5 mg/kg/injection, schedule: Q01DX009 (ip), vehicle: Klucel (hydroxypropylcellulose) (HPC)",92 % of control
same,T/C,"dose: 12.5 mg/kg/injection, schedule: Q03HX024 (ip), vehicle: Klucel (hydroxypropylcellulose) (HPC)",95 % of control
same,T/C,"dose: 12.5 mg/kg/injection, schedule: Q04DX003 (ip), vehicle: Klucel (hydroxypropylcellulose) (HPC)",101 % of control
same,T/C,"dose: 25.0 mg/kg/injection, schedule: Q01DX009 (ip), vehicle: Klucel (hydroxypropylcellulose) (HPC)",101 % of control
same,T/C,"dose: 25.0 mg/kg/injection, schedule: Q03HX024 (ip), vehicle: Klucel (hydroxypropylcellulose) (HPC)",92 % of control
same,T/C,"dose: 25.0 mg/kg/injection, schedule: Q04DX003 (ip), vehicle: Klucel (hydroxypropylcellulose) (HPC)",103 % of control
same,T/C,"dose: 50.0 mg/kg/injection, schedule: Q01DX009 (ip), vehicle: Klucel (hydroxypropylcellulose) (HPC)",98 % of control
same,T/C,"dose: 50.0 mg/kg/injection, schedule: Q04DX003 (ip), vehicle: Klucel (hydroxypropylcellulose) (HPC)",101 % of control
same,T/C,[1],103 % of control
same,T/C,"dose: 200.0 mg/kg/injection, schedule: Q04DX003 (ip), vehicle: Klucel (hydroxypropylcellulose) (HPC)",93 % of control
same,T/C,"dose: 400.0 mg/kg/injection, schedule: Q04DX003 (ip), vehicle: Klucel (hydroxypropylcellulose) (HPC)",108 % of control
O=[N+]([O-])c1ccc(S(=O)(=O)OCc2ccccc2OS(=O)(=O)c2ccc([N+](=O)[O-])cc2)cc1,T/C,"dose: 25.0 mg/kg/injection, schedule: Q01DX009 (ip), vehicle: saline sonified",103 % of control
same,T/C,"dose: 50.0 mg/kg/injection, schedule: Q01DX009 (ip), vehicle: saline sonified",95 % of control
same,T/C,"dose: 100.0 mg/kg/injection, schedule: Q01DX009 (ip), vehicle: saline sonified",100 % of control
same,T/C,[1],91 % of control
Cc1cc([N+](=O)[O-])cc(S(=O)(=O)O)c1C,T/C,[2],102 % of control
same,T/C,[3],98 % of control and 92 % of control
same,T/C,"dose: 200.0 mg/kg/injection, schedule: Q01DX009 (ip), vehicle: saline with Tween-80",98 % of control and 106 % of control
same,T/C,"dose: 400.0 mg/kg/injection, schedule: Q01DX009 (ip), vehicle: saline with Tween-80",98 % of control
CCCC(=O)NC1=C(N2CC2)C(=O)C(NC(=O)CCC)=C(N2CC2)C1=O,T/C,"dose: 0.13 mg/kg/injection, schedule: Q01DX010 (oral), vehicle: saline",104 % of control
same,T/C,"dose: 0.25 mg/kg/injection, schedule: Q01DX010 (oral), vehicle: saline",110 % of control
same,T/C,"dose: 0.5 mg/kg/injection, schedule: Q01DX010 (oral), vehicle: saline",116 % of control
same,T/C,"dose: 1.0 mg/kg/injection, schedule: Q01DX010 (oral), vehicle: saline",116 % of control
same,T/C,"dose: 1.0 mg/kg/injection, schedule: Q01DX Z (ip), vehicle: saline",124 % of control
same,T/C,"dose: 2.0 mg/kg/injection, schedule: Q01DX Z (ip), vehicle: saline",166 % of control and 193 % of control
same,T/C,"dose: 4.0 mg/kg/injection, schedule: Q01DX010 (oral), vehicle: saline",154 % of control
same,T/C,"dose: 8.0 mg/kg/injection, schedule: Q01DX Z (ip), vehicle: saline",100 % of control
O=C(O)c1cc(O)c(Br)c(O)c1,T/C,"dose: 75.0 mg/kg/injection, schedule: Q01DX009 (ip), vehicle: other",93 % of control
same,T/C,[4],106 % of control
same,T/C,"dose: 150.0 mg/kg/injection, schedule: Q01DX009 (ip), vehicle: other",96 % of control
same,T/C,[5],101 % of control
same,T/C,[6],95 % of control
N#CC1C=Cc2ccccc2N1C(=O)Oc1ccccc1 (configuration not stated),T/C,[4],104 % of control
same,T/C,[5],93 % of control
same,T/C,[6],94 % of control
OC(CCCNc1ccccc1)CCCNc1ccccc1,T/C,"dose: 75.0 mg/kg/injection, schedule: Q01DX001 (ip), vehicle: saline",96 % of control
same,T/C,"dose: 150.0 mg/kg/injection, schedule: Q01DX001 (ip), vehicle: saline",91 % of control
CCCCCCCCCCCCCCCCCCNC(=O)N(C)C1CCCCC1,T/C,"dose: 100.0 mg/kg/injection, schedule: Q01DX009 (ip), vehicle: Klucel (hydroxypropylcellulose) (HPC)",88 % of control
same,T/C,"dose: 200.0 mg/kg/injection, schedule: Q01DX009 (ip), vehicle: Klucel (hydroxypropylcellulose) (HPC)",89 % of control
same,T/C,"dose: 400.0 mg/kg/injection, schedule: Q01DX009 (ip), vehicle: Klucel (hydroxypropylcellulose) (HPC)",101 % of control
Nc1cccc(S(=O)(=O)N(CCO)CCO)c1,T/C,[4],90 % of control
same,T/C,[5],95 % of control
same,T/C,[6],94 % of control
O=C(CCCC(=O)N/N=C/c1ccc(I)cc1)N/N=C\c1ccc(I)cc1,T/C,"dose: 50.0 mg/kg/injection, schedule: Q01DX001 (ip), vehicle: saline",100 % of control
same,T/C,"dose: 100.0 mg/kg/injection, schedule: Q01DX001 (ip), vehicle: saline",93 % of control
same,T/C,"dose: 200.0 mg/kg/injection, schedule: Q01DX001 (ip), vehicle: saline",93 % of control
same,T/C,"dose: 400.0 mg/kg/injection, schedule: Q01DX001 (ip), vehicle: saline",97 % of control
O=C(Cc1ccccc1)NCCc1ccc(-c2ccccc2)cc1,T/C,[7],94 % of control
same,T/C,[8],96 % of control
same,T/C,[9],86 % of control
O=C1CCC(N2C(=O)C3C4CCC(O4)C3C2=O)C(=O)N1 (configuration not stated),T/C,"dose: 100.0 mg/kg/injection, schedule: Q04DX002 (ip), vehicle: Klucel (hydroxypropylcellulose) (HPC)",103 % of control
same,T/C,"dose: 100.0 mg/kg/injection, schedule: Q04DX003 (ip), vehicle: saline with Tween-80",96 % of control
same,T/C,"dose: 200.0 mg/kg/injection, schedule: Q04DX002 (ip), vehicle: Klucel (hydroxypropylcellulose) (HPC)",113 % of control
same,T/C,"dose: 200.0 mg/kg/injection, schedule: Q04DX003 (ip), vehicle: saline with Tween-80",100 % of control
same,T/C,"dose: 400.0 mg/kg/injection, schedule: Q04DX002 (ip), vehicle: Klucel (hydroxypropylcellulose) (HPC)",103 % of control
same,T/C,"dose: 400.0 mg/kg/injection, schedule: Q04DX003 (ip), vehicle: saline with Tween-80",96 % of control
CC(=O)OC1CCCC1OC(=O)c1ccc([N+](=O)[O-])cc1 (configuration not stated),T/C,"dose: 100.0 mg/kg/injection, schedule: Q04DX003 (ip), vehicle: other",106 % of control
same,T/C,"dose: 200.0 mg/kg/injection, schedule: Q04DX003 (ip), vehicle: other",96 % of control
same,T/C,"dose: 400.0 mg/kg/injection, schedule: Q04DX003 (ip), vehicle: other",95 % of control
CC(=O)O[C@@]1(C)[C@@H](C)C(=O)O[C@@H]2CCN3CC=C(COC(=O)[C@]1(C)O)[C@H]23,T/C,"dose: 6.25 mg/kg/injection, schedule: Q01DX009 (ip), vehicle: other",97 % of control
same,T/C,"dose: 12.5 mg/kg/injection, schedule: Q01DX009 (ip), vehicle: other",94 % of control
same,T/C,"dose: 25.0 mg/kg/injection, schedule: Q01DX009 (ip), vehicle: other",120 % of control
same,T/C,"dose: 25.0 mg/kg/injection, schedule: Q01DX009 (ip), vehicle: saline",114 % of control
same,T/C,"dose: 50.0 mg/kg/injection, schedule: Q01DX009 (ip), vehicle: carboxymethylcellulose (CMC)",124 % of control
same,T/C,"dose: 100.0 mg/kg/injection, schedule: Q01DX009 (ip), vehicle: carboxymethylcellulose (CMC)",118 % of control
ClC1=C(Cl)C2CCC1C2,T/C,"dose: 25.0 mg/kg/injection, schedule: Q01DX009 (ip), vehicle: saline with Tween-80",88 % of control
same,T/C,[2],98 % of control
same,T/C,"dose: 100.0 mg/kg/injection, schedule: Q01DX005 (ip), vehicle: saline with Tween-80",96 % of control
same,T/C,[3],94 % of control and 98 % of control
same,T/C,"dose: 100.0 mg/kg/injection, schedule: Q04DX002 (ip), vehicle: saline with Tween-80",100 % of control
same,T/C,"dose: 200.0 mg/kg/injection, schedule: Q01DX005 (ip), vehicle: saline with Tween-80",92 % of control
same,T/C,"dose: 200.0 mg/kg/injection, schedule: Q04DX002 (ip), vehicle: saline with Tween-80",100 % of control
same,T/C,"dose: 400.0 mg/kg/injection, schedule: Q01DX005 (ip), vehicle: saline with Tween-80",101 % of control
CCOC(=O)c1c(C)c2c(n1C)CCC(C#N)C2=O (configuration not stated),T/C,[7],103 % of control
same,T/C,[8],97 % of control
same,T/C,[9],98 % of control
